Measurements taken from paper PMC12029992, “Beyond-Rule-of-Five Compounds Are Not Different: In Vitro–In Vivo Extrapolation of Female CD-1 Mouse Clearance Based on Merck Healthcare KGaA Compound Set” (Pharmaceuticals, 2025).

System: female CD-1 mouse
Test: Pharmacokinetic studies in mice (IV clearance)
Format: in vivo
Conditions: for in vivo obs. CL,b: blood clearance; for in vivo obs. CLint,b: blood intrinsic clearance; for in vivo obs. CLint,b,u: unbound blood intrinsic clearance
Description: Pharmacokinetic studies were carried out after approval by the internal animal welfare board and in compliance with the local and international animal welfare regulations similarly to a method described previously. Generally, three or twelve CD-1 mice per study were dosed intravenously (0.2–1 mg/kg) using solution vehicles, predominantly 40% PEG 200 in 1% DMSO. For the majority of the studies, blood samples were taken retro-orbitally under inhalation of anesthesia (0.1, 0.5, 1, 2, 4, 6, and 24 h). For the remaining studies, blood sampling was performed both retro-orbitally (0.1, 0.5, 1, 2, and 24 h) and from the saphenous vein (4 and 6 h) (N = 51), from the dorsal metatarsal vein (N = 34), or submandibularly (N = 12). Plasma was obtained by centrifugation (10,000× g; 4 °C; 5 min) and stored at −20 °C until UHPLC-MS/MS analysis. By the addition of an ACN solution containing internal standard, the proteins were precipitated and dissevered by centrifugation. The concentration of the respective molecules studied was determined by a standard UHPLC-MS/MS method (generic method similar to the method described for the determination of CLint using experimentally determined compound MS tuning parameters). Plasma concentrations were determined for each time point sampled. Clearance was estimated from the AUC by non-compartmental analysis, which was performed using WinNonlin® (Princeton, NJ, USA). The geometric mean was used when more than one clearance value from different studies was available.
CLp/Rb observed CLint,b=QH∗obs. CL,b/QH−obs. CL,b
All unbound clearance terms were calculated by dividing the respective clearance by fu,p. predicted/observed CL,b,u=pred./obs. CL,b/fu,p

in vivo obs. CL,b	in vivo obs. CLint,b	in vivo obs. CLint,b,u	Compound
63.61 mL/min/kg	169.91 mL/min/kg	3658.76 mL/min/kg	N#Cc1c[nH]c2c(C(=O)N3CCN(CCc4ccc(F)cc4)CC3)cccc12 [MSC213]
2.83 mL/min/kg	2.91 mL/min/kg	170.57 mL/min/kg	O=C(O)c1cc(-c2ccc(F)cc2F)ccc1O [MSC001]
77.00 mL/min/kg	317.36 mL/min/kg	1652.94 mL/min/kg	COc1cccc(OCCCN)c1-c1cc(Nc2cnc(C#N)cn2)n[nH]1 [MSC020]
6.38 mL/min/kg	6.81 mL/min/kg	89.15 mL/min/kg	CNC(=O)c1cc(Oc2ccc3nc(N[C@@H]4CCCC[C@H]4O)sc3c2)ccn1 [MSC003]
